Data on 19 molecules can be found in ChEMBL document CHEMBL3232785, “Basic quinolinonyl diketo acid derivatives as inhibitors of HIV integrase and their activity against RNase H function of reverse transcriptase” (J Med Chem, 2014).

Activity calls are given as the source filed them. No cut-off for these calls is given here.

Series [1] addresses T1, Human immunodeficiency virus type 1 integrase (Human immunodeficiency virus 1, UniProt Q7ZJM1). As to the kind of experiment: Inhibition of HIV1 integrase strand transfer activity by gel-based assay.
The target in series [2] is Human immunodeficiency virus type 1 reverse transcriptase (Human immunodeficiency virus 1) (UniProt Q72547). As to the kind of experiment: Inhibition of HIV1 polymerase function of reverse transcriptase up to 40 uM.
For series [3], the target named is Human immunodeficiency virus type 1 reverse transcriptase (Human immunodeficiency virus 1, UniProt Q72547). As to the kind of experiment: Inhibition of HIV1 RNase H function of recombinant reverse transcriptase using an 18-nt 3'-fluorescein-labeled RNA annealed to complementary 18-nt 5'-dabsyl-labeled DNA as substrate after 10 mins by fluorescence spectrometer analysis.

Series [4] addresses T1, Human immunodeficiency virus type 1 integrase. As to the kind of experiment: Inhibition of HIV1 integrase 3'-processing activity by gel-based assays.
The subject of series [5] is HeLa. As to the kind of experiment: Cytotoxicity against human HeLa cells expressing CD4-LTR-beta-gal after 24 hrs by ATPlite assay. It counts as cell-based. Background: Cellular ATP, detected with luciferase, serves as a proxy for viable cell number.
The nature of series [6]: in vitro. To be noted: human, HeLa cells expressing CD4-LTR-beta-gal.
Description: Selectivity index, ratio of CC50 for human HeLa cells expressing CD4-LTR-beta-gal to EC50 for HIV1 3B
In series [7] the test system is Human immunodeficiency virus 1. As to the kind of experiment: Antiviral activity against HIV1 3B infected in human HeLa cells expressing CD4-LTR-beta-gal assessed as inhibition of viral replication after 3 days by reporter gene assay. It counts as functional, organism-based. To be noted: Human immunodeficiency virus 1, 3B, 72 h. On the technique in general: Reporter assays use an easily measured gene product as a stand-in for the process of interest.

T1 sequence (Q7ZJM1 whole entry): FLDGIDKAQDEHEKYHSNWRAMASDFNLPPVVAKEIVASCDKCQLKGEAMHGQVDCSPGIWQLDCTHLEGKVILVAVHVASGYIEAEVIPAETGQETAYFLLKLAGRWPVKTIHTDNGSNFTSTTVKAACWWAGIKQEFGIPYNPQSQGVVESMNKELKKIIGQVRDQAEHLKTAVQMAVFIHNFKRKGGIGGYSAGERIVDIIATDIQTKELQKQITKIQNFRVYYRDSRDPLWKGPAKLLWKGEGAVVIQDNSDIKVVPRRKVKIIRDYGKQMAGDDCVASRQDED

The term IC50 denotes the point on the concentration scale where inhibition reaches its midpoint. For orientation: CC50 means the concentration that lowers cell viability or growth by half. Low values mean greater toxicity to the cells, high ones lower toxicity to the cells. By EC50 is commonly meant the concentration at which the effect is half-maximal. Turning to `O=C(O)/C(O)=C/C(=O)c1cn(Cc2ccc(F)cc2)c2cc(N3CCOCC3)ccc2c1=O`, the IC50 was 0.08 µM in series [1], 6.8 µM in series [3] and 13 µM in series [4]. Further, the inhibition result in series [2] was “inactive”. Further, the CC50 in series [5] is over 50 µM. Besides, the selectivity ratio in series [6] is over 1.9. In addition, the EC50 in series [7] was found to be 26.3 µM.

Consider `CCOC(=O)/C(O)=C/C(=O)c1cn(Cc2ccc(F)cc2)c2cc(N(C)C)ccc2c1=O`, for which the figures for the IC50 in series [1] and in series [4] were 2.9 µM and 41 µM, respectively. The EC50 in series [7] was over 50 µM.

Turning to `O=C(O)/C(O)=C/C(=O)c1cn(Cc2ccc(F)cc2)c2cc(N3CCNCC3)ccc2c1=O`, the EC50 in series [7] is over 50 µM.

For the molecule `CN(C)c1ccc2c(=O)c(C(=O)/C=C(\O)C(=O)O)cn(Cc3ccc(F)cc3)c2c1`, the EC50 in series [7] was over 50 µM.

Turning to `CCOC(=O)/C(O)=C/C(=O)c1cn(Cc2ccc(F)cc2)c2cc(N3CCNCC3)ccc2c1=O`, the figures for the IC50 in series [1] and in series [4] were 24 µM and over 333 µM, respectively. Besides, the CC50 in series [5] was over 50 µM. Besides, in series [6], the selectivity ratio was over 2.4. In addition, the EC50 in series [7] was 20.9 µM.

`CCOC(=O)/C(O)=C/C(=O)c1cn(Cc2ccc(F)cc2)c2cc(N3CCN(CC)CC3)ccc2c1=O` came in with a cytotoxic concentration (CC50) in series [5] of over 50 µM.

With `CCOC(=O)/C(O)=C/C(=O)c1cn(Cc2ccc(F)cc2)c2cc(N3CCN(C(C)=O)CC3)ccc2c1=O`, the half-inhibitory concentration (IC50) in series [1] amounted to 0.17 µM; in series [4], 17 µM. In addition, in series [7], the concentration giving a half-maximal response (EC50) was over 50 µM.

In series [5], `CCOC(=O)/C(O)=C/C(=O)c1cn(Cc2ccc(F)cc2)c2cc(N3CCN(C)CC3)ccc2c1=O` showed a CC50 of over 50 µM.

In series [5], `Cc1nnc(C(=O)NC(C)(C)c2nc(C(=O)NCc3ccc(F)cc3)c(O)c(=O)n2C)o1` had a cytotoxic concentration (CC50) of over 50 µM.

For the molecule `O=C(O)/C(O)=C/C(=O)c1cn(Cc2ccc(F)cc2)c2cc(N3CCSCC3)ccc2c1=O`, the IC50 in series [1] was 0.36 µM; in series [4], 30 µM. Also, the EC50 in series [7] was over 50 µM.

In series [5], `COc1cc2c(cc1Cc1cccc(Cl)c1F)c(=O)c(C(=O)O)cn2[C@H](CO)C(C)C` yielded a cytotoxic concentration (CC50) of over 50 µM. Also, the EC50 in series [7] was 0.0142 µM.

On to `O=C(O)/C(O)=C/C(=O)c1cn(Cc2ccc(F)cc2)c2cc(N3CCCC3)ccc2c1=O`, for which, in series [2], the inhibition result is “inactive”. For the same molecule, the IC50 in series [3] is 5.1 µM. In series [5], this molecule came in with a cytotoxic concentration (CC50) of over 50 µM.

Turning to `O=C(O)/C(O)=C/C(=O)c1cn(Cc2ccc(F)cc2)c2cc(N3CCN(CCCCl)CC3)ccc2c1=O`, the figures for the half-inhibitory concentration (IC50) in series [1], in series [3] and in series [4] were 0.05 µM, 5.7 µM and 4.6 µM, respectively. Also, the inhibition entry in series [2] was “inactive”. For the same molecule, in series [7], the concentration for a half-maximal effect (EC50) is over 50 µM.

Take `CC(=O)N1CCN(c2ccc3c(=O)c(C(=O)/C=C(\O)C(=O)O)cn(Cc4ccc(F)cc4)c3c2)CC1`: the cytotoxic concentration (CC50) in series [5] was over 50 µM.

`CN1CCN(c2ccc3c(=O)c(C(=O)/C=C(\O)C(=O)O)cn(Cc4ccc(F)cc4)c3c2)CC1`: the IC50 in series [1] was found to be 0.1 µM; in series [4] it was 8.5 µM. In series [7], the EC50 was over 50 µM.

Turning to `CCN1CCN(c2ccc3c(=O)c(C(=O)/C=C(\O)C(=O)O)cn(Cc4ccc(F)cc4)c3c2)CC1`, the figures for the IC50 in series [1] and in series [4] were 0.21 µM and 23 µM, respectively. Also, in series [7], the EC50 was over 50 µM.

Turning to `CCOC(=O)/C(O)=C/C(=O)c1cn(Cc2ccc(F)cc2)c2cc(N3CCN(CCCCl)CC3)ccc2c1=O`, the half-inhibitory concentration (IC50) in series [1] worked out at 1.3 µM; in series [4], 102 µM. In addition, in series [5], the cytotoxic concentration (CC50) is over 50 µM. Besides, the selectivity ratio in series [6] was over 3.7. For the same molecule, the EC50 in series [7] was 13.2 µM.

Take `CCOC(=O)/C(O)=C/C(=O)c1cn(Cc2ccc(F)cc2)c2cc(N3CCCC3)ccc2c1=O`: in series [5], the cytotoxic concentration (CC50) was over 50 µM.

As to `CCOC(=O)/C(O)=C/C(=O)c1cn(Cc2ccc(F)cc2)c2cc(N3CCOCC3)ccc2c1=O`, the half-maximal inhibitory concentration (IC50) in series [1] was 2.1 µM; in series [4], over 111 µM. This molecule also gave a CC50 in series [5] of over 50 µM. The selectivity ratio in series [6] was over 3. The EC50 in series [7] was found to be 16.2 µM.
